Molecule `CN1CCOC(c2ccccc2)c2ccccc2C1` (centres undefined) came in with a log partition coefficient (logP) of 3.02. Under `Cc1cc(C)cc(N)c1` stands 2.09; under `CCCCNc1ccc(C(=O)OCCN(C)C)cc1`, 3.46; under `Nc1ccccn1`, 0.4.

For `NC(=O)NN=Cc1ccc([N+](=O)[O-])o1`, the logP is 0.74. Under `NS(=O)(=O)c1cc(C2(O)NC(=O)c3ccccc32)ccc1Cl` (centres undefined) stands 1.17.

In turn, `CC(=O)O[C@]1(C(=O)CO)CC[C@H]2[C@@H]3CCC4=CC(=O)CC[C@]4(C)[C@H]3[C@@H](O)C[C@@]21C` had a log partition coefficient (logP) of 2.17.

`Cc1ccccc1CN` had a logP of 1.62. Under `Cc1cccc(CN)c1` stands 1.82. The molecule `CC(N)c1ccccc1` (centres undefined) registered a log partition coefficient (logP) of 1.45. `Cc1ccnc(C)c1` displayed a logP of 1.58. On to `NCc1ccccc1`, for which the logP worked out at 1.1. The molecule `Cc1cncc(C)c1` displayed a log partition coefficient (logP) of 1.74.

Regarding `C=C[C@H]1CN2CC[C@H]1C[C@@H]2[C@@H](O)c1ccnc2ccc(OC)cc12`, the log partition coefficient (logP) came out at 2.77.

The record behind these values is the SangsterLogP compilation.
